ChEMBL document CHEMBL4402545, “Subtype Selective γ-Aminobutyric Acid Type A Receptor (GABAAR) Modulators Acting at the Benzodiazepine Binding Site: An Update” (J Med Chem, 2020)

How the values were obtained:
Homo sapiens [1] = test: In vivo receptor occupancy GABAA receptor in human assessed as neocortical regions concentration causing reduction in [11C]flumazenil receptor labeling at 1.5 mg after 24 hrs by PET method relative to control; format: functional
[2] = target: T1, Gamma-aminobutyric acid receptor subunit alpha-3 (Homo sapiens, UniProt P34903); test: Binding affinity to GABA-A alpha3 (unknown origin)
T1 sequence (P34903 whole entry): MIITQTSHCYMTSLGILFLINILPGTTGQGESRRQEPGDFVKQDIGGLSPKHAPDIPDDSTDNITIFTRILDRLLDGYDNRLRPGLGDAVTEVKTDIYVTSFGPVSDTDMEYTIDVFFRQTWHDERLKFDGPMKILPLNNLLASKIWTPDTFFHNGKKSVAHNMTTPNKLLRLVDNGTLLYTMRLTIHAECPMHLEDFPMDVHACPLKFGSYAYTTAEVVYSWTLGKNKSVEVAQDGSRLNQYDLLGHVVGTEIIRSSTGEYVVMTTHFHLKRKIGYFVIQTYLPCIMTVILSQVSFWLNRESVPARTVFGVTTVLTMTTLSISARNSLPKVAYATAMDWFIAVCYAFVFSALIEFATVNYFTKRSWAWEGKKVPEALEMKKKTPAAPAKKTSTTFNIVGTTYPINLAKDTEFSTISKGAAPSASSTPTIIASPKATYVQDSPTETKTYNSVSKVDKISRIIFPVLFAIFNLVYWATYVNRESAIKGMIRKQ

Homo sapiens [3] = test: In vivo receptor occupancy GABAA receptor in human assessed as neocortical regions concentration causing reduction in [11C]flumazenil receptor labeling at 1.5 mg after 5 hrs by PET method relative to control; format: functional
[4] = target: T2, Gamma-aminobutyric acid receptor subunit alpha-5 (Homo sapiens, UniProt P31644); test: Binding affinity to GABA-A alpha5 (unknown origin)
T2 sequence (P31644 whole entry): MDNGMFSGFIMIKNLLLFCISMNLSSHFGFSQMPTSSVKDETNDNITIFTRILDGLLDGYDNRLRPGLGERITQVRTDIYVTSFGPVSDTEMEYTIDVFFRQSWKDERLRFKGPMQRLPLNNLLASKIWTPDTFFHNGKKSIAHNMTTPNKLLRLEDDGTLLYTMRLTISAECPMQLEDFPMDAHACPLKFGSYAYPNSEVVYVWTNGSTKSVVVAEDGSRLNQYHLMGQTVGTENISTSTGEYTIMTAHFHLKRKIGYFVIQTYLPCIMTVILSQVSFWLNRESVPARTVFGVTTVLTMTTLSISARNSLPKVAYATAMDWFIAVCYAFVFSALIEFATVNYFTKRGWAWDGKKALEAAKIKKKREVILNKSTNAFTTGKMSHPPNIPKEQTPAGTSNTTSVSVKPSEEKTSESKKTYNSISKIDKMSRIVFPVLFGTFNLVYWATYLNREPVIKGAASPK

[5] = target: T3, Gamma-aminobutyric acid receptor subunit alpha-3 (Homo sapiens) (UniProt P34903); test: Binding affinity to GABA-A alpha3 (unknown origin) assessed as increase in induced current relative to control
T3 sequence (whole entry): T1 sequence (P34903 whole entry)

[6] = target: T4, Gamma-aminobutyric acid receptor subunit alpha-1 (Homo sapiens, UniProt P14867); test: Binding affinity to GABA-A alpha1 (unknown origin)
T4 sequence (P14867 whole entry): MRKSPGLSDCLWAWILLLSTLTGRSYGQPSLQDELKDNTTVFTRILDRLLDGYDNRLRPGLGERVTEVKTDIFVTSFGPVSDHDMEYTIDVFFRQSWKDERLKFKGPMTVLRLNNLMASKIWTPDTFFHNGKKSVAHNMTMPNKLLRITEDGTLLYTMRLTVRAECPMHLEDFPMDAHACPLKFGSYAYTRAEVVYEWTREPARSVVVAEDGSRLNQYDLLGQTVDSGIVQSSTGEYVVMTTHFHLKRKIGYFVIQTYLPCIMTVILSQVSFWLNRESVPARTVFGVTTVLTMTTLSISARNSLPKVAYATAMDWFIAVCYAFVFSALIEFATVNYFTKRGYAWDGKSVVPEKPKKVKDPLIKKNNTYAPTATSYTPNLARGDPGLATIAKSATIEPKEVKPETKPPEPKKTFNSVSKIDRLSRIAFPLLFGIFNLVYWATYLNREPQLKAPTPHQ

[7] = target: T5, Gamma-aminobutyric acid receptor subunit alpha-1 (Homo sapiens) (UniProt P14867); test: Binding affinity to GABA-A alpha1 (unknown origin) assessed as increase in induced current relative to control
T5 sequence (whole entry): T4 sequence (P14867 whole entry)

Rattus norvegicus [8] = test: In vivo receptor occupancy at GABAA receptor in po dosed Sprague-Dawley rat assessed as plasma concentration causing 50% reduction in [3H]-flumazenil receptor labeling by scintillation counting method; format: functional
Rattus norvegicus [9] = test: In vivo receptor occupancy at GABAA receptor in po dosed Sprague-Dawley rat assessed as brain concentration causing 50% reduction in [3H]-flumazenil receptor labeling after 0.75 hrs by scintillation counting method; format: functional
[10] = target: T6, Gamma-aminobutyric acid receptor subunit alpha-2 (Homo sapiens, UniProt P47869); test: Binding affinity to GABA-A alpha2 (unknown origin)
T6 sequence (P47869 whole entry): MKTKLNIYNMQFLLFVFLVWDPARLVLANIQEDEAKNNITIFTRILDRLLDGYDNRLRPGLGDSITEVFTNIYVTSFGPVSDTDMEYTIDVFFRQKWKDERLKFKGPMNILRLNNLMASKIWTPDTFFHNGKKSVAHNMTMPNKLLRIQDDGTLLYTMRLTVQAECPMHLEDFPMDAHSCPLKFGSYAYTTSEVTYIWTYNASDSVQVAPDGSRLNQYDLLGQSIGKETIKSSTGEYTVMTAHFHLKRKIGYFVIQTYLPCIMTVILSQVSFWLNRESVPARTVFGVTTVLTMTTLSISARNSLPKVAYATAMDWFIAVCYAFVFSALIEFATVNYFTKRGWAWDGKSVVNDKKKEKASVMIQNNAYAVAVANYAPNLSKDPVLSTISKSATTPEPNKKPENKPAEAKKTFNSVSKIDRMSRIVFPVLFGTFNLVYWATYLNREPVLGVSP

[11] = target: T7, Gamma-aminobutyric acid receptor subunit alpha-2 (Homo sapiens) (UniProt P47869); test: Binding affinity to GABA-A alpha2 (unknown origin) assessed as increase in induced current relative to control
T7 sequence (whole entry): T6 sequence (P47869 whole entry)

[12] = target: T8, Gamma-aminobutyric acid receptor subunit alpha-5 (Homo sapiens) (UniProt P31644); test: Binding affinity to GABA-A alpha5 (unknown origin) assessed as increase in induced current relative to control
T8 sequence (whole entry): T2 sequence (P31644 whole entry)

Homo sapiens [13] = test: In vivo receptor occupancy at GABAA receptor in po dosed human assessed as plasma concentration causing 50% reduction in [11C]-flumazenil receptor labeling; format: functional
Rattus norvegicus [14] = test: In vivo receptor occupancy at GABAA receptor in po dosed rat assessed as plasma concentration causing 50% reduction in [3H]-flumazenil receptor labeling by scintillation counting method; format: functional
Rattus norvegicus [15] = test: In vivo receptor occupancy at GABAA receptor in po dosed rat assessed as brain concentration causing 50% reduction in [3H]-flumazenil receptor labeling after 18 hrs by scintillation counting method; format: functional
Homo sapiens [16] = test: In vivo receptor occupancy at GABAA receptor in human assessed as plasma concentration causing reduction in [11C]-flumazenil receptor labeling at 9 ng/ml by PET method relative to control; format: functional
[17] = target: T9, GABA-A receptor; alpha-3/beta-3/gamma-2 (Homo sapiens, UniProt P18507+P28472+P34903); test: Displacement of [3H]-flumazenil from human GABAA alpha3beta3gamma2 expressed in Ltk cells; format: cell-based
T9 sequence (P18507 whole entry): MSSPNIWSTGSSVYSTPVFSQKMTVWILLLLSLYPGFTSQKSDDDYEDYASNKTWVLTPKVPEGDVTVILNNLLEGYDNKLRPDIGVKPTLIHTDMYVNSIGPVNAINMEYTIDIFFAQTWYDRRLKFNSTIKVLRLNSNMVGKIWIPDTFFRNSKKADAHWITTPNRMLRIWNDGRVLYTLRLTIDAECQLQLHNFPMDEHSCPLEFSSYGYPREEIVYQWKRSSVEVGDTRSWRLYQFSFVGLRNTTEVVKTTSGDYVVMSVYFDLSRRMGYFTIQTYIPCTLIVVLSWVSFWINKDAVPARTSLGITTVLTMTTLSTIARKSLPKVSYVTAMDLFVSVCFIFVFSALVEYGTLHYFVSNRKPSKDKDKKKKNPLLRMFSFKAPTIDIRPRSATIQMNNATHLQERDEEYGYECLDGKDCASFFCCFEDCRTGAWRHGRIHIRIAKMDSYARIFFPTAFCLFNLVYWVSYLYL
T9 sequence (P28472 whole entry): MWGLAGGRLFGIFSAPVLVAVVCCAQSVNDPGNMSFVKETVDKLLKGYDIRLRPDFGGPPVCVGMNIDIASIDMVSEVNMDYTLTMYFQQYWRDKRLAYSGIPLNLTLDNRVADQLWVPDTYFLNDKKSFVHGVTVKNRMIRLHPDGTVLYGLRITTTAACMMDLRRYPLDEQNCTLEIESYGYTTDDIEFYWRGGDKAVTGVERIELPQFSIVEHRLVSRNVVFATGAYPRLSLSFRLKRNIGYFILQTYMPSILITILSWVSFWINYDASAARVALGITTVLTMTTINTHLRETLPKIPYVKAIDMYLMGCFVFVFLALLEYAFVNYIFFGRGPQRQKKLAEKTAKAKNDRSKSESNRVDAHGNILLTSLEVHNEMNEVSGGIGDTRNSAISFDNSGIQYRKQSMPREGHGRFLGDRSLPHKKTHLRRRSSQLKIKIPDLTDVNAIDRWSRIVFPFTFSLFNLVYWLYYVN
T9 sequence (P34903 whole entry): T1 sequence (P34903 whole entry)

[18] = target: T10, GABA-A receptor; alpha-5/beta-3/gamma-2 (Homo sapiens, UniProt P18507+P28472+P31644); test: Displacement of [3H]-flumazenil from human GABAA alpha5beta3gamma2 expressed in Ltk cells; format: cell-based
T10 sequence (P18507 whole entry): T9 sequence (P18507 whole entry)
T10 sequence (P28472 whole entry): T9 sequence (P28472 whole entry)
T10 sequence (P31644 whole entry): T2 sequence (P31644 whole entry)

[19] = target: T11, GABA-A receptor; alpha-1/beta-3/gamma-2 (Homo sapiens, UniProt P14867+P18507+P28472); test: Displacement of [3H]-flumazenil from human GABAA alpha1beta3gamma2 expressed in Ltk cells; format: cell-based
T11 sequence (P14867 whole entry): T4 sequence (P14867 whole entry)
T11 sequence (P18507 whole entry): T9 sequence (P18507 whole entry)
T11 sequence (P28472 whole entry): T9 sequence (P28472 whole entry)

Ki [17] [nM]	Ki [18] [nM]	Ki [19] [nM]	SMILES	Occ (Homo sapiens [1]) [%]	Ki [2] [nM]	Occ (Homo sapiens [3]) [%]	Ki [4] [nM]	fold change (FC) [5]	Ki [6] [nM]	fold change (FC) [7]	Occ50 (Rattus norvegicus [8]) [ng/mL]	Occ50 (Rattus norvegicus [9]) [mg/kg]	Ki [10] [nM]	fold change (FC) [11]	fold change (FC) [12]	Occ50 (Homo sapiens [13]) [ng/mL]	Occ50 (Rattus norvegicus [14]) [ng/mL]	Occ50 (Rattus norvegicus [15]) [mg/kg]	Occ (Homo sapiens [16]) [%]
			CC(C)(O)c1cnn2c(-c3ccc(F)c(-c4c(F)cccc4C#N)c3)cnc2n1	46	1.8	52	1.1	0.5	0.73	0.03	19	0.09	2	0.38	0.37	5.8			
			CCn1ncnc1COc1nn2c(-c3ccccc3F)nnc2cc1C(C)(C)C [MK-0777]														25	0.42	50
0.67	2.25	0.79	Cn1ncnc1COc1nn2c(-c3cc(F)ccc3F)nnc2cc1C(C)(C)C					0.43		0.02				0.43	0.39				
